Data on five compounds can be found in paper PMC2267855, “Site-directed mutagenesis of Arginine282 suggests how protons and peptides are co-transported by rabbit PepT1” (The International Journal of Biochemistry & Cell Biology, 2008).

Assay [1] deals with T1, wild-type PepT1 (Oryctolagus cuniculus, UniProt P36836).
T1 construct: expressed in transfected cells; host or cells: Xenopus laevis oocytes injected with cRNA
T1 sequence (P36836 1-707): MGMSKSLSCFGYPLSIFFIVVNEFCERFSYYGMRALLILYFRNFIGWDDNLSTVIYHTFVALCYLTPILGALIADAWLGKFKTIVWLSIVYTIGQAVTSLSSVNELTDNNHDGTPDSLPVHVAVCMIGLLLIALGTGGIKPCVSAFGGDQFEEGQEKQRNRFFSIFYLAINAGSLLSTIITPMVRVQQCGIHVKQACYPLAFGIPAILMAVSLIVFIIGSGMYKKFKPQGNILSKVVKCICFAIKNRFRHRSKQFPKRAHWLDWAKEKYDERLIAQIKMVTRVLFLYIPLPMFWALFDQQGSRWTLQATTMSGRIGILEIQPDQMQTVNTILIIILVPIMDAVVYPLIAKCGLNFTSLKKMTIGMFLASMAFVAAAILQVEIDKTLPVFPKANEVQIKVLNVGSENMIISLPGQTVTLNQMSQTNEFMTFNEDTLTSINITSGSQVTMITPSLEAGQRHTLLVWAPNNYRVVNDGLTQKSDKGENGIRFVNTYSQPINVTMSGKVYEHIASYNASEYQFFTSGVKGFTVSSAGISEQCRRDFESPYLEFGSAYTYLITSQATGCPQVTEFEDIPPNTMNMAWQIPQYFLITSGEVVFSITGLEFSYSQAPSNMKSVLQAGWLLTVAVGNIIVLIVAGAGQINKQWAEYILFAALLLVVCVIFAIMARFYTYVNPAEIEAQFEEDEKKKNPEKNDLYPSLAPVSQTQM
As to the kind of experiment: Diethylpyrocarbonate inhibition of PepT1-mediated dipeptide uptake and protection by substrates. Type of assay: cell-based, rabbit. Particulars: for protection of PepT1 from DEPC inhibition: 5 mM present during 1 mM DEPC incubation (15 min), uptake measured over 1 h. How it is done:
(§1) Zero-trans uptake of [^3H]-D-Phe-L-Gln (17.4 Ci/mmole, custom synthesised, Cambridge Research Biochemicals, Stockton-on-Tees, UK) was performed as previously described ([Meredith, 2004]). Briefly, 5 oocytes were incubated in 100 μl of uptake medium (95 mM NaCl, 2 mM KCl, 1 mM CaCl2, 0.42 mM MgCl2, 10 mM Tris/Hepes pH 7.4 or Tris/Mes pH 5.5) with tracer (0.4 μM) [^3H]-D-Phe-L-Gln. After incubation, the oocytes were washed sequentially five times in 1 ml of ice-cold 120 mM NaCl solution, lysed individually with 100 μl 2% (w/v) SDS and liquid scintillation counted. As a control non-injected oocytes were also incubated in uptake medium with [^3H]-D-Phe-L-Gln as above.
Diethylpyrocarbonate (DEPC) inhibition of PepT1 was performed using a similar protocol to that of [Terada, Saito, and Inui (1998)]. Briefly, PepT1 oocytes were preincubated with 1 mM DEPC for 15 min at pHout 5.5 in the absence or presence of the PepT1 substrates Gly-L-Gln, N-Acetyl-Phe ([Meredith et al., 2000]), and L-Ala-Tyramine (custom synthesised) and the non-substrate Tyr (all 5 mM). The oocytes were then washed in uptake medium before uptake assays were performed as detailed above.

The target in the next assay is T2, wild-type rabbit PepT1 (Oryctolagus cuniculus, UniProt P36836).
T2 construct: expressed in transfected cells; host or cells: Xenopus laevis oocytes injected with cRNA
T2 sequence (P36836 1-707): T1 sequence (P36836 1-707)
As to the kind of experiment: Inhibition of [3H]-D-Phe-L-Gln uptake into Xenopus oocytes expressing wild-type PepT1 (competition, Ki). Particulars: PepT1, data not shown; read-out: Ki (PepT1 substrate). Type of assay: cell-based. How it is done: as §1
The affinity of wild-type and mutant PepT1 were assessed by competition studies with 0.4 μM [^3H]-D-Phe-L-Gln and Gly-L-Gln present in the uptake medium in concentrations from 0 to 2 mM using the protocol above, and the Ki calculated using the method of [Deves and Boyd (1989)].

For assay [2], the target named is T1, wild-type PepT1. As to the kind of experiment: Membrane potential of oocytes expressing wild-type PepT1 (single microelectrode). Type of assay: cell-based, rabbit. Particulars: 10 mM, pHout 5.5, 1 min. The procedure:
(§2) Measurements of membrane potential were made by impaling oocytes with a single glass microelectrode (Intra 767 amplifier, WPI, Stevenage, Hertfordshire, UK) perfused in uptake medium (as above) with or without 0.4 μM D-Phe-L-Gln (synthesised in house), 0.6 mM Gly-L-Gln (Sigma, Poole, UK) or 10 mM 4-aminobenzoic acid (4-AMBA, Sigma). Two-electrode voltage clamp (TEVC) was performed by placing oocytes in a 0.1 ml recording chamber and perfusing with uptake solution (pH 5.5 or 7.4) at a rate of 15 ml/min. Oocytes were impaled by two agarose-cushioned microelectrodes filled with 3 M KCl (0.5–2.0 MΩ) and voltage-clamped at −60 mV using a Geneclamp 500B amplifier and PCLAMP 8.1 software (Axon Instruments, CA, USA). The holding potential was stepped from −60 mV over the range of −150 to +50 mV in 10 mV steps, each pulse lasting 100 ms, and returning to −60 mV in between test voltage pulses. Typically traces were filtered at 1 kHz during recording and digitized at 0.5–5 kHz using the DigiData 1200 interface (Axon Instruments, CA, USA). All experiments were carried out at room temperature.

A further assay deals with T3, R282E-PepT1 (Oryctolagus cuniculus, UniProt P36836, R282E).
T3 construct: expressed in transfected cells; host or cells: Xenopus laevis oocytes injected with cRNA
T3 sequence (P36836 1-707 R282E): T1 sequence (P36836 1-707) with R282E
In words: Membrane potential of oocytes expressing R282E-PepT1 (single microelectrode). Type of assay: cell-based, rabbit. Particulars: 10 mM, pHout 5.5, 1 min. How it is done:
as §2

Molecules are shown by their SMILES. Residue numbers refer to the chain shown, from its start.

In the case of `CCOC(=O)OC(=O)OCC` [DEPC, Diethylpyrocarbonate], the “inhibition of PepT1 mediated dipeptide uptake” value against wild-type PepT1 [1] (1 mM, 15 min preincubation, pHout 5.5, uptake measured over 1 h) is listed as “completely inhibited”.

Turning to `CC(=O)NC(Cc1ccccc1)C(=O)O` (stereo not shown) [N-Acetyl-Phe], the “protection of PepT1 from DEPC inhibition” value on wild-type PepT1 [1] is listed as “largely prevented”.

Consider `C[C@H](N)C(=O)NCCc1ccc(O)cc1` [L-Ala-Tyramine], for which the Ki on wild-type rabbit PepT1 is about 100 µM. Moreover, at wild-type PepT1 [1], the “protection of PepT1 from DEPC inhibition” value is listed as “only partially prevented”.

As for `N[C@@H](Cc1ccc(O)cc1)C(=O)O` [Tyr], the “protection of PepT1 from DEPC inhibition” value at wild-type PepT1 [1] was “not”.

On to `Nc1ccc(C(=O)O)cc1` [4-AMBA, 4-aminobenzoic acid], for which the membrane potential depolarisation entry on wild-type PepT1 [2] and at R282E-PepT1 was “failed to induce a depolarisation” each time.
